Experimental data taken from patent US10487115B2, “Proteinaceous compounds and uses therefor” (UNIVERSITY OF CANBERRA, priority 2016, dated 2019).
Ends that are not written are not given here. * marks the point of attachment. Myristoyl = CCCCCCCCCCCCCC(=O)*

Assays:
[1] = target: T1, PKC-θ (Homo sapiens, UniProt Q04759); assay: Nuclear localization of PKC-θ (PKC-θ-phosphor-T538 antibody) in MCF7 cells treated with peptide inhibitors of other PKC isoforms; assay type: cell-based; conditions: 50 μM peptide inhibitor 24 hr, PMA 0.65 ng/mL 60 hr, N-myristoylated
T1 construct: endogenous in cells; host or cells: MCF7
Method: nPKC-β1, nPKC-ε and nPKC-δ peptide inhibitors were designed based on the nuclear localization signal of PKC-β1, PKC-ε and PKC-δ respectively. These peptides were synthesized and N-myristoylated using the method of Example 1.
MCF7 cells were pre-seeded overnight on sterile coverslips in 12 well plates with 1 mL of completed DMEM before inhibiting with 50 μM of nPKC-β1, nPKC-ε or nPKC-δ peptide inhibitor respectively for 24 hr. Inhibitors were not removed when MCF7 cells were stimulated with 0.65 ng/mL of PMA for 60 hr. DEPC-water was used for control (test peptides were dissolved in sterile DEPC-water). After washing with DPBS twice, samples on coverslips were fixed with 4% paraformaldehyde for 10 minutes and stained with PKC-θ-phosphor-T538 primary Antibody and conjugated Alexa-488 secondary Antibody. Cell nucleus was stained with anti-fade DAPI. When samples were dried overnight, Nikon fluorescence microscopy was used to take photos. ImageJ software was used for densimetric analysis. Fn/c was calculated using the formula: Fn/c=(nuclear density-background density)/(cytoplasmic density-background density).

[2] = system: cancer stem cell markers (CSV, LSD1p, PKC-θ and PDL1); assay: Expression of cancer stem cell markers in MDA-MB-231 xenograft cells (confocal microscopy, TNFI/TCFI); assay type: in vivo, Balb-c nude mice; conditions: importinib4759 40 mg/kg, docetaxel 4 mg/kg
Method: The effect of Importinib4759 on the expression of cancer stem cell markers in MDA-MB-231 xenograft breast cancer cells from Balb-c nude mice was evaluated using confocal laser scanning microscopy.
MDA-MB-231 xenograft breast cancer cells from Balb-c nude mice were treated and prepared as per the method of Example 7. Test compounds included control (saline), docetaxel (4 mg/kg), importinib4759 (40 mg/kg; synthesized in accordance with Example 1) or a combination of importinib4759 (40 mg/kg) and docetaxel (4 mg/kg). The single cell suspensions were fixed with 3.7% formaldehyde and permeabilized with 2% Triton-X-100 and were then probed with primary mouse antibodies to CSV, primary goat antibodies to PDL1 and primary rabbit antibodies to phosphorylated LSD1 (LSD1p; lysine-specific histone demethylase 1A) or PKC-θ followed by the corresponding secondary antibody conjugated to anti mouse Alexa-Fluor 568, anti-goat Alexa-Fluor 633 or anti-rabbit Alexa-Fluor 488. The cell nucleus was stained with anti-fade DAPI. TNFI (Total Nuclear Fluorescence Intensity) or TCFI (Total Cytoplasmic Fluorescence Intensity) values were calculated for at least 20 individual cells per sample. Data shown represent the mean±SE grouped into time point of collection.

[3] = system: M1 macrophage markers (LSD1p, CCR7 and CD38); assay: Expression of M1 macrophage markers in MDA-MB-231 xenograft cells (confocal microscopy, TNFI/TCFI); assay type: in vivo, Balb-c nude mice; conditions: importinib4759 40 mg/kg, docetaxel 4 mg/kg
Method: (§1) The effect of Importinib4759 on the expression of cancer associated fibroblast (CAF) and macrophage in MDA-MB-231 xenograft breast cancer cells from Balb-c nude mice was evaluated using confocal laser scanning microscopy. MDA-MB-231 xenograft breast cancer cells from Balb-c nude mice were treated and prepared as per the method of Example 7. Test compounds included control (saline), docetaxel (4 mg/kg), importinib4759 (40 mg/kg; synthesized in accordance with Example 1) or a combination of importinib4759 (40 mg/kg) and docetaxel (4 mg/kg). The single cell suspensions were fixed with 3.7% formaldehyde and permeabilized with 2% Triton-X-100 and were then probed with a set of CAF signature antibodies [primary mouse antibodies to FAP (fibroblast activation protein), primary goat antibodies to CCL2 (chemokine (C-C motif) ligand 2) and primary rabbit antibodies to LSD1 (lysine-specific histone demethylase 1A; a target of PKC-θ)] or M1 macrophage markers [primary mouse antibodies to CCR[…] chemokine receptor type 7), primary goat antibodies to CD38 (cluster of differentiation 38) and primary rabbit antibodies to LSD1p (a target of PKC-θ)], followed by the corresponding secondary antibody conjugated to anti mouse Alexa-Fluor 568, anti-goat Alexa-Fluor 633 or anti-rabbit Alexa-Fluor 488. […] TNFI or TCFI values were calculated for at least 20 individual cells per sample. […]

[4] = system: CAF markers (FAP, LSD1 and CCL2); assay: Expression of CAF markers in MDA-MB-231 xenograft cells (confocal microscopy, TNFI/TCFI); assay type: in vivo, Balb-c nude mice; conditions: importinib4759 40 mg/kg, docetaxel 4 mg/kg
Method: as §1

[5] = system: MDA-MB-231 xenograft; assay: Balb/c-nude MDA-MB-231 xenograft breast cancer model: tumor volume and cancer stem cell proportion; assay type: in vivo, balb/c-nude mice
Method: A Balb/c-nude MDA-MB-231 xenograft breast cancer model was utilized to determine the effect of the importinib peptides alone and in combination with the chemotherapeutic, docetaxel in comparison to a randomized peptide control.
Five week old balb/c-nude mice (n=5 per test compound) were injected with MDA-MB-231 human breast carcinoma cell suspensions (2×10^6 cells in 25 μL PBS mixed with 25 μL of BD Matrigel Matrix) subcutaneously into the right mammary gland. Test compounds in a saline vehicle [4 mg/kg docetaxel; 8 mg/kg, 40 mg/kg and 60 mg/kg importinib4759 or importinib4759_O1 (synthesized in accordance with Example 1); 4 mg/kg docetaxel with 8 mg/kg importinib4759 or importinib4759_O1; 4 mg/kg docetaxel with 40 mg/kg importinib4759 or importinib4759_O1; 4 mg/kg docetaxel with 60 mg/kg importinib4759 or importinib4759_O1; or randomized peptide control] were injected intraperitoneally. Tumor volume was assessed using calipers daily over a period of five weeks following treatment. Animals were sacrificed after the five week period. Tumor grafts were removed using resection and processed into single cell suspensions. The percentage of cancer stem cells was determined using FACS analysis. FACS staining was performed using anti-human CD44-APC, anti-human CD24-PE, Hoechst, and anti-human EpCAM antibody cocktails. Data was collected from BD FACSLSR-II flow cytometer. Treestar FlowJo was used for data analysis. Significance was determined using a one-way ANOVA or Mann-Whitney T-test.

[6] = system: MDA-MB-231 cells; assay: CD44hiCD24lo cancer stem cells in MDA-MB-231 model (FACS); assay type: cell-based, human; conditions: 50 μM or 100 μM importinib4759, 48 hr, p<0.0001 relative to control
Method: (§2) 5×10^4 MDA-MB-231 cells were seeded with 1 mL of complete DMEM in 12 well plates overnight, then importinib4759 (5004 and 100 μM; synthesized in accordance with Example 1) or importinib4759_O1 (2504 and 50 μM; synthesized in accordance with Example 1) were used to treat cells for 48 hr before samples were harvested by trypsinization followed by washing with DPBS containing 2% HI-FBS. FACS staining was performed using anti-human CD44-APC, anti-human CD24-PE, Hoechst, and anti-human EpCAM antibody cocktails. Data was collected from BD FACSLSR-II flow cytometer. Treestar FlowJo was used for data analysis.

[7] = target: T1, PKC-θ; assay: Nuclear translocation of PKC-θ in PMA-stimulated MCF7 cells (immunofluorescence, Fn/c); assay type: cell-based; conditions: 50 μM peptide 24 hr, then PMA 0.65 ng/mL 60 hr, N-myristoylated peptides, p<0.0001 relative to control
Method: MCF7 cells were pre-seeded overnight on sterile coverslips in 12 well plates with 1 mL of completed Dulbecco's modified eagle medium (DMEM) before incubating with 50 μM of importinib4759 (synthesized in accordance with Example 1) and importinib4759_O1 (synthesized in accordance with Example 1) for 24 hr. Test peptides were not removed when MCF7 cells were stimulated with 0.65 ng/mL of phorbol 12-myristate 13-acetate (PMA) for 60 hr. Diethylpyrocarbonate (DEPC)-water was used for control (test peptides were dissolved in sterile DEPC-water). After wash with Dulbecco's phosphate buffered saline (DPBS) twice, samples on coverslips were fixed with 4% paraformaldehyde for 10 minutes and stained with PKC-θ (Cat. SC-212), PKC-θ-Phosphor-T538, PKC-β2, PKC-α, Importin α, or Importin 8 primary Antibody respectively and conjugated Alexa-488 secondary Antibody. Cell nucleus was stained with anti-fade 2-(4-amidinophenyl)-6-indolecarbamidine dihydrochloride (DAPI). When samples were dried overnight, Nikon fluorescence microscopy was used to take photos. ImageJ software was used for densimetric analysis. Fn/c was calculated using the formula: Fn/c=(nuclear density-background density)/(cytoplasmic density-background density).

[8] = system: MCF7 cells; assay: CD44hiCD24lo cancer stem cell formation in MCF-IM model (FACS); assay type: cell-based, human; conditions: importinib4759 5004 and 100 μM, importinib4759_O1 2504 and 50 μM, 24 hr before PMA 60 hr, p=0.0079 relative to control
Method: as §2, with “5×10^4 MCF7” for “5×10^4 MDA-MB-231”, “for 24” for “for 48”, “before stimulation with PMA for 60 hr. Samples” for “before samples”, “2% heat inactivated foetal bovine serum (HI-FBS).” for “2% HI-FBS.”, “staining were” for “staining was”

T1 sequence (Q04759 whole entry, canonical isoform): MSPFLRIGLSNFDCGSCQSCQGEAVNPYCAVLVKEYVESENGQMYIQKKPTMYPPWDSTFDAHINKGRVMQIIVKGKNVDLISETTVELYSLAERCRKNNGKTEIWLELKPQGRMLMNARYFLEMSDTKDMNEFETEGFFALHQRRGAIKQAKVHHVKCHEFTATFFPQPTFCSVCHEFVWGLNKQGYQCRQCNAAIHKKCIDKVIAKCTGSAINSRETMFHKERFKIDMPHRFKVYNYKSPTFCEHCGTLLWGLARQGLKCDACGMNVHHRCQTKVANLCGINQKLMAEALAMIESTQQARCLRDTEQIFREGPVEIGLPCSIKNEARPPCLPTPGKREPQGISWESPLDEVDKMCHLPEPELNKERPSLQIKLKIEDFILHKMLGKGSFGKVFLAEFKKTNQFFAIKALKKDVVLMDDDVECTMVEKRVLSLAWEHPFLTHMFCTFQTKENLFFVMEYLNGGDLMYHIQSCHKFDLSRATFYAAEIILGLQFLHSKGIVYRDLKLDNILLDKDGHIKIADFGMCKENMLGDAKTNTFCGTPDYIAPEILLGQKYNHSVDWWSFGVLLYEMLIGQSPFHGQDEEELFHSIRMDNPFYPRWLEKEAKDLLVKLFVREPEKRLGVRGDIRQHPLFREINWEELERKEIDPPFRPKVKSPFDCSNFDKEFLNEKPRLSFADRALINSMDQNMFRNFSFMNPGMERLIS

effect on nuclear localization of PKC-θ [1] | Compound | expression of cancer stem cell markers (CSV, LSD1p, PKC-θ, PDL1) [2] | expression of M1 macrophage markers (LSD1p, CCR7, CD38; docetaxel result stated for CCR7 and CD38) [3] | expression of CAF markers (FAP, LSD1np, CCL2) [4] | other results
had no effect | KRRLEPPFRPKVK [nPKC-δ] |  |  |  | 
 | CC(=O)O[C@@]12CO[C@@H]1C[C@H](O)[C@@]1(C)C(=O)[C@H](O)C3=C(C)[C@@H](OC(=O)[C@H](O)[C@@H](NC(=O)OC(C)(C)C)c4ccccc4)C[C@@](O)([C@@H](OC(=O)c4ccccc4)[C@H]21)C3(C)C [docetaxel, reference compound] | increased expression of cancer stem cell markers | unaffected | significantly increased the expression of CAF markers | 
 | RKEIDPPFRPKVK-OH (Myristoyl-RKEIDPPFRPKVK-OH; SMILES CCCCCCCCCCCCCC(=O)N[C@@H](CCCNC(=N)N)C(=O)N[C@@H](CCCCN)C(=O)N[C@@H](CCC(=O)O)C(=O)N[C@H](C(=O)N[C@@H](CC(=O)O)C(=O)N1CCC[C@H]1C(=O)N1CCC[C@H]1C(=O)N[C@@H](Cc1ccccc1)C(=O)N[C@@H](CCCNC(=N)N)C(=O)N1CCC[C@H]1C(=O)N[C@@H](CCCCN)C(=O)N[C@H](C(=O)N[C@@H](CCCCN)C(=O)O)C(C)C)[C@@H](C)CC) [Importinib4759, tested N-myristoylated] | significantly abrogated expression of cancer stem cell markers | augmented | abrogated expression of CAF markers | cancer stem cell (CD44highCD24low) population in tumor grafts ([5]; FACS of resected tumor grafts after five weeks): significantly abrogating the cancer stem cell population; tumor volume in comparison to the control or docetaxel treatment alone ([5]; intraperitoneal, peptide 8, 40 and 60 mg/kg, docetaxel 4 mg/kg, five weeks): abrogating tumor volume; tumor volume over time ([5]; intraperitoneal, peptide 8, 40 and 60 mg/kg, docetaxel 4 mg/kg, five weeks, n=5): significantly reduced tumor volume over time; reduction of CD44hiCD24lo cancer stem cells [6]: Significant reduction of cancer stem cells; blocking of nuclear PKC-θ (nuclear translocation) [7]: capable of blocking nuclear PKC-θ; cancer stem cell (CD44hiCD24lo) formation [8]: inhibited
had no effect | KKIKPPFKPRIKTKR (Myristoyl-KKIKPPFKPRIKTKR) [nPKC-ε] |  |  |  | 
had no effect | RKEIQPPYKPKAR (Myristoyl-RKEIQPPYKPKAR) [nPKC-β1] |  |  |  | 
